Assay: cn = amount concentration of the nth substance listed, in mol/dm3
Conditions: 298.15 K, 101 kPa, Liquid, Taylor dispersion method

Row | SMILES | binary diffusion coefficient (c1 = 0.005) | binary diffusion coefficient (c1 = 0.1)
1 | N[C@@H](Cc1ccc(O)c(O)c1)C(=O)O [L-3,4-dihydroxyphenylalanine] + O | 6.2e-10 m2/s | –
2 | Cl [hydrogen chloride] + O | 2.99e-09 m2/s | 2.9e-09 m2/s

— the NIST ThermoML archive (doi:10.1016/j.jct.2013.12.010)
